Patent US8106055B2, “Substituted amide compounds” (Gruenenthal GmbH, priority 2007, dated 2012)
Like-named read-outs stand apart in the source and are kept apart here.

Experiments:
[1] = molecular target: T1, human bradykinin 1 receptor (B1R) (Homo sapiens, UniProt P46663); experiment: Functional investigation on the human bradykinin 1 receptor (B1R), Ca2+ FLIPR assay in CHO K1 hB1R cells; assay type: cell-based
T1 construct: expressed in transfected cells; host or cells: CHO K1 cells
T1 sequence (P46663 1-353): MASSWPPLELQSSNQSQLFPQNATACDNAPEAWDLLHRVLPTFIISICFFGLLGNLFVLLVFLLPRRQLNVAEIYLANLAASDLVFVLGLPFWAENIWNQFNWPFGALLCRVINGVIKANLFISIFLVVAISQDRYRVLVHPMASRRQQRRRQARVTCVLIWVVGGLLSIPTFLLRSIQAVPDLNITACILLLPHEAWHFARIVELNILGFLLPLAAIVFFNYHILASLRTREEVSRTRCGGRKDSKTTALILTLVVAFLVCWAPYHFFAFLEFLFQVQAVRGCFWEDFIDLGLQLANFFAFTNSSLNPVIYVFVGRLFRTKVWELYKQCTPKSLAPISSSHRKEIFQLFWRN
Method in brief: (§1)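 Stably transfected CHO K1 cells loaded with Fluo-4; FLIPR Ca2+ fluorescence peak (ex 488/em 540 nm). Compound added first (agonism vs Lys-Des-Arg9-bradykinin ≥50 nM human, Des-Arg9-bradykinin 10 μM rat), then after 10-20 min agonist at EC80; antagonism as % inhibition, IC50 from concentration series, n=2-3, N≥2.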

[2] = molecular target: T2, bradykinin 1 receptor (B1R) of the rat (Rattus norvegicus, UniProt P97583); experiment: Functional investigation on the rat bradykinin 1 receptor (B1R), Ca2+ FLIPR assay in CHO K1 rB1R cells; assay type: cell-based
T2 construct: expressed in transfected cells; host or cells: CHO K1 cells
T2 sequence (P97583 1-337): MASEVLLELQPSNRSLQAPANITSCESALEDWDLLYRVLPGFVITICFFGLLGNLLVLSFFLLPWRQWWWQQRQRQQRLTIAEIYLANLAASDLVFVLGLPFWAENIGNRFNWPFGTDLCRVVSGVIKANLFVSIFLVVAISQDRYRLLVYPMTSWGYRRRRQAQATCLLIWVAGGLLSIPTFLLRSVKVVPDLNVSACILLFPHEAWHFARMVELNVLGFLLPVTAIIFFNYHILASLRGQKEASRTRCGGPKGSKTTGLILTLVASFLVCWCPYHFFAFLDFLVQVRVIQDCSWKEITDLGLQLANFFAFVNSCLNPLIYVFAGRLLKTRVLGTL
Method in brief: as §1

[3] = CHO-K1, B1R antagonism human, test substance 10 μM, Ca2+ FLIPR, CHO K1 hB1R cells, read-out: B1R Ant. h [10 μM] % Inhibition
[4] = CHO-K1, B1R antagonism rat, test substance 10 μM, Ca2+ FLIPR, CHO K1 rB1R cells, read-out: B1R Ant. r [10 μM] % Inhibition

In the case of `CN(C)C(c1cccc(F)c1)C1CCC(NC(=O)COC2CCN(S(=O)(=O)c3ccc(F)cc3)C2)CC1` (centres unmarked) [Example 172, N-(4-((dimethylamino)(3-fluorophenyl)methyl)cyclohexyl)-2-(1-(4-fluorophenylsulfonyl)pyrrolidin-3-yloxy)acetamide], the inhibition at 10 µM [1, 3] is reported as -12% and the inhibition at 10 µM [2, 4] is reported as 18%.

In the case of `COc1cc(C)c(S(=O)(=O)N2CCC(OCC(=O)NCC3CCC(C(c4ccccc4)N(C)C)CC3)C2)c(C)c1` (centres unmarked) [Example 173, N-((4-((dimethylamino)(phenyl)methyl)cyclohexyl)methyl)-2-(1-(4-methoxy-2,6-dimethylphenylsulfonyl)pyrrolidin-3-yloxy)acetamide], the inhibition at 10 µM [1, 3] is reported as 94% and the inhibition at 10 µM [2, 4] is reported as 104%.

`CN(C)C(c1cccc(F)c1)C1CCC(CCNC(=O)COCCN(C)S(=O)(=O)c2c(Cl)cc(Cl)cc2Cl)CC1` (centres unmarked) [Example 174, N-(2-(4-((dimethylamino)(3-fluorophenyl)methyl)cyclohexyl)ethyl)-2-(2-(2,4,6-trichloro-N-methylphenylsulfonamido)ethoxy)acetamide] gave an inhibition at 10 µM [1, 3] of 103% and an inhibition at 10 µM [2, 4] of 44%.

`CN(C)C(c1cccc(F)c1)C1CCC(NC(=O)COCCN(Cc2ccccc2)S(=O)(=O)c2ccccc2)CC1` (centres unmarked) [Example 175, 2-(2-(N-benzylphenylsulfonamido)ethoxy)-N-(4-((dimethylamino)(3-fluorophenyl)methyl)cyclohexyl)acetamide] showed an inhibition at 10 µM [1, 3] of -6% and an inhibition at 10 µM [2, 4] of 5%.

In the case of `CCN(CCOCC(=O)NC1CCC(C(c2cccc(F)c2)N(C)C)CC1)S(=O)(=O)c1c(C)cc(OC)c(C)c1C` (centres unmarked) [Example 176, N-(4-((dimethylamino)(3-fluorophenyl)methyl)cyclohexyl)-2-(2-(N-ethyl-4-methoxy-2,3,6-trimethylphenylsulfonamido)ethoxy)acetamide], the inhibition at 10 µM [1, 3] is reported as 64% and the inhibition at 10 µM [2, 4] is reported as 47%.

Work on `COc1cc(C)c(S(=O)(=O)N2CCC(OCC(=O)NCCC3CCC(C(c4cccs4)N(C)C)CC3)CC2)c(C)c1C` (centres unmarked) [Example 177, N-(2-(4-((dimethylamino)(thiophen-2-yl)methyl)cyclohexyl)ethyl)-2-(1-(4-methoxy-2,3,6-trimethylphenylsulfonyl)piperidin-4-yloxy)acetamide] yielded an inhibition at 10 µM [1, 3] of 10% and an inhibition at 10 µM [2, 4] of 45%.

For `COc1cc(C)c(S(=O)(=O)N2CCC(CCOCC(=O)NC3CCC(C(c4ccc(F)cc4)N(C)C)CC3)CC2)c(C)c1C` (centres unmarked) [Example 178, N-(4-((dimethylamino)(4-fluorophenyl)methyl)cyclohexyl)-2-(2-(1-(4-methoxy-2,3,6-trimethylphenylsulfonyl)piperidin-4-yl)ethoxy)acetamide], the inhibition at 10 µM [1, 3] was 24% and the inhibition at 10 µM [2, 4] was 12%.

`COc1ccc(S(=O)(=O)N2CCCCC2COCC(=O)NCC2CCC(C(c3cccc(F)c3)N(C)C)CC2)cc1` (centres unmarked) [Example 179, N-((4-((dimethylamino)(3-fluorophenyl)methyl)cyclohexyl)methyl)-2-((1-(4-methoxyphenylsulfonyl)piperidin-2-yl)methoxy)acetamide] was tested, and the inhibition at 10 µM [1, 3] was 65% and the inhibition at 10 µM [2, 4] was 67%.

Compound `COc1ccc(S(=O)(=O)N2CCCCC2COCC(=O)NCCC2CCC(C(c3cccc(F)c3)N(C)C)CC2)cc1` (centres unmarked) [Example 180, N-(2-(4-((dimethylamino)(3-fluorophenyl)methyl)cyclohexyl)ethyl)-2-((1-(4-methoxyphenylsulfonyl)piperidin-2-yl)methoxy)acetamide] has an inhibition at 10 µM [1, 3] of 62% and an inhibition at 10 µM [2, 4] of 68%.

In the case of `COc1ccc(S(=O)(=O)N2CCCC2COCC(=O)NC2CCC(C(c3ccccc3)N(C)C)CC2)cc1` (centres unmarked) [Example 182, N-(4-((dimethylamino)(phenyl)methyl)cyclohexyl)-2-((1-(4-methoxyphenylsulfonyl)pyrrolidin-2-yl)methoxy)acetamide], the inhibition at 10 µM [1, 3] is reported as 9% and the inhibition at 10 µM [2, 4] is reported as 25%.

Work on `COc1cc(C)c(S(=O)(=O)N(C)CCOCC(=O)NCCC2CCC(C(c3cccc(F)c3)N(C)C)CC2)c(C)c1C` (centres unmarked) [Example 183, N-(2-(4-((dimethylamino)(3-fluorophenyl)methyl)cyclohexyl)ethyl)-2-(2-(4-methoxy-N,2,3,6-tetramethylphenylsulfonamido)ethoxy)acetamide] yielded an inhibition at 10 µM [1, 3] of 104% and an inhibition at 10 µM [2, 4] of 28%.

Work on `COc1ccc(S(=O)(=O)N2CCC(OCC(=O)NCC3CCC(C(c4cccc(F)c4)N(C)C)CC3)C2)cc1OC` (centres unmarked) [Example 184, 2-(1-(3,4-dimethoxyphenylsulfonyl)pyrrolidin-3-yloxy)-N-((4-((dimethylamino)(3-fluorophenyl)methyl)cyclohexyl)methyl)acetamide] yielded an inhibition at 10 µM [1, 3] of -29% and an inhibition at 10 µM [2, 4] of 38%.

For `Cc1ccc(S(=O)(=O)N2CCC(OCC(=O)NCC3CCC(C(c4cccc(F)c4)N(C)C)CC3)C2)cc1` (centres unmarked) [Example 185, N-((4-((dimethylamino)(3-fluorophenyl)methyl)cyclohexyl)methyl)-2-(1-tosylpyrrolidin-3-yloxy)acetamide], the inhibition at 10 µM [1, 3] was 9% and the inhibition at 10 µM [2, 4] was 28%.

`CN(C)C(c1cccc(F)c1)C1CCC(CCNC(=O)COCCN(C)S(=O)(=O)c2ccc(Cl)cc2)CC1` (centres unmarked) [Example 186, 2-(2-(4-chloro-N-methylphenylsulfonamido)ethoxy)-N-(2-(4-((dimethylamino)(3-fluorophenyl)methyl)cyclohexyl)ethyl)acetamide] was tested, and the inhibition at 10 µM [1, 3] was 23% and the inhibition at 10 µM [2, 4] was 35%.

`CN(C)C(c1cccc(F)c1)C1CCC(CNC(=O)COCCN(C)S(=O)(=O)c2c(Cl)cc(Cl)cc2Cl)CC1` (centres unmarked) [Example 188, N-((4-((dimethylamino)(3-fluorophenyl)methyl)cyclohexyl)methyl)-2-(2-(2,4,6-trichloro-N-methylphenylsulfonamido)ethoxy)acetamide] gave an inhibition at 10 µM [1, 3] of 102% and an inhibition at 10 µM [2, 4] of 13%.

`COc1cc(C)c(S(=O)(=O)N2CCC(OCC(=O)NC3CCC(C(c4cccc(F)c4)N(C)C)CC3)C2)c(C)c1C` (centres unmarked) [Example 189, N-(4-((dimethylamino)(3-fluorophenyl)methyl)cyclohexyl)-2-(1-(4-methoxy-2,3,6-trimethylphenylsulfonyl)pyrrolidin-3-yloxy)acetamide] showed an inhibition at 10 µM [1, 3] of 47% and an inhibition at 10 µM [2, 4] of 16%.

Compound `COc1ccc(S(=O)(=O)N2Cc3ccccc3CC2COCC(=O)NCCC2CCC(C(c3cccc(F)c3)N(C)C)CC2)cc1` (centres unmarked) [Example 190, N-(2-(4-((dimethylamino) (3-fluorophenyl)methyl)cyclohexyl)ethyl)-2-((2-(4-methoxyphenylsulfonyl)-1,2,3,4-tetrahydroisoquinolin-3-yl)methoxy)acetamide] has an inhibition at 10 µM [1, 3] of 29% and an inhibition at 10 µM [2, 4] of 18%.

In the case of `COc1ccc(S(=O)(=O)N2CCCCC2COCC(=O)NCCC2CCC(C(c3cccc(F)c3)N(C)C)CC2)cc1OC` (centres unmarked) [Example 191, 2-((1-(3,4-dimethoxyphenylsulfonyl)piperidin-2-yl)methoxy)-N-(2-(4-((dimethylamino)(3-fluorophenyl)methyl)cyclohexyl)ethyl)acetamide], the inhibition at 10 µM [1, 3] is reported as -16% and the inhibition at 10 µM [2, 4] is reported as -14%.

For `CN(C)C(c1cccc(F)c1)C1CCC(CCNC(=O)COCCN(C)S(=O)(=O)c2cccc(C(F)(F)F)c2)CC1` (centres unmarked) [Example 192, N-(2-(4-((dimethylamino)(3-fluorophenyl)methyl)cyclohexyl)ethyl)-2-(2-(N-methyl-3-(trifluoromethyl)phenylsulfonamido)ethoxy)acetamide], the inhibition at 10 µM [1, 3] was 30% and the inhibition at 10 µM [2, 4] was 10%.

`COc1cc(C)c(S(=O)(=O)N(CCOCC(=O)NC2CCC(C(c3ccccc3)N(C)C)CC2)Cc2ccccc2)c(C)c1C` (centres unmarked) [Example 193, 2-(2-(N-benzyl-4-methoxy-2,3,6-trimethylphenylsulfonamido)ethoxy)-N-(4-((dimethylamino) (phenyl)methyl)cyclohexyl)acetamide] showed an inhibition at 10 µM [1, 3] of 97% and an inhibition at 10 µM [2, 4] of 6%.

With `CN(C)C(c1cccs1)C1CCC(NC(=O)COC2CCN(S(=O)(=O)c3ccccc3)C2)CC1` (centres unmarked) [Example 194, N-(4-((dimethylamino)(thiophen-2-yl)methyl)cyclohexyl)-2-(1-(phenylsulfonyl)pyrrolidin-3-yloxy)acetamide] the inhibition at 10 µM [1, 3] was -17% and the inhibition at 10 µM [2, 4] was 14%.

`CN(C)C(c1ccccc1)C1CCC(CNC(=O)COC2CCN(S(=O)(=O)c3ccccc3)C2)CC1` (centres unmarked) [Example 195, N-((4-((dimethylamino)(phenyl)methyl)cyclohexyl)methyl)-2-(1-(phenylsulfonyl)pyrrolidin-3-yloxy)acetamide] gave an inhibition at 10 µM ([1]; CHO-K1, read-out: B1R Ant. h [10 μM] % Inhibition) of -13% and an inhibition at 10 µM ([2]; CHO-K1, read-out: B1R Ant. r [10 μM] % Inhibition) of 24%.
